{"source": "PubChem BioAssay (NCI)", "assay_in_all_cases": "growth of human tumour cells (NCI), 48 h", "key": {"786-0 renal": {"tested_on": "786-0 renal"}, "A498 renal": {"tested_on": "A498 renal"}, "A549 NSCLC": {"tested_on": "A549 NSCLC"}, "ACHN renal": {"tested_on": "ACHN renal"}, "BT-549 breast": {"tested_on": "BT-549 breast"}, "CAKI-1 renal": {"tested_on": "CAKI-1 renal"}, "COLO 205 colon": {"tested_on": "COLO 205 colon"}, "DU-145 prostate": {"tested_on": "DU-145 prostate"}, "EKVX NSCLC": {"tested_on": "EKVX NSCLC"}, "HCC-2998 colon": {"tested_on": "HCC-2998 colon"}, "HCT-116 colon": {"tested_on": "HCT-116 colon"}, "HCT-15 colon": {"tested_on": "HCT-15 colon"}, "HL-60(TB) leukemia": {"tested_on": "HL-60(TB) leukemia"}, "HOP-62 NSCLC": {"tested_on": "HOP-62 NSCLC"}, "HOP-92 NSCLC": {"tested_on": "HOP-92 NSCLC"}, "HS 578T breast": {"tested_on": "HS 578T breast"}, "HT29 colon": {"tested_on": "HT29 colon"}, "IGROV1 ovarian": {"tested_on": "IGROV1 ovarian"}, "K-562 leukemia": {"tested_on": "K-562 leukemia"}, "KM12 colon": {"tested_on": "KM12 colon"}, "LOX IMVI melanoma": {"tested_on": "LOX IMVI melanoma"}, "M14 melanoma": {"tested_on": "M14 melanoma"}, "MALME-3M melanoma": {"tested_on": "MALME-3M melanoma"}, "MCF7 breast": {"tested_on": "MCF7 breast"}, "MDA-MB-231 breast": {"tested_on": "MDA-MB-231 breast"}, "MDA-MB-435": {"tested_on": "MDA-MB-435"}, "MDA-N": {"tested_on": "MDA-N"}, "MOLT-4 leukemia": {"tested_on": "MOLT-4 leukemia"}, "NCI-H226 lung": {"tested_on": "NCI-H226 lung"}, "NCI-H23 lung": {"tested_on": "NCI-H23 lung"}, "NCI-H460 lung": {"tested_on": "NCI-H460 lung"}, "NCI-H522 lung": {"tested_on": "NCI-H522 lung"}, "NCI/ADR-RES ovarian": {"tested_on": "NCI/ADR-RES ovarian"}, "OVCAR-3 ovarian": {"tested_on": "OVCAR-3 ovarian"}, "OVCAR-4 ovarian": {"tested_on": "OVCAR-4 ovarian"}, "OVCAR-5 ovarian": {"tested_on": "OVCAR-5 ovarian"}, "OVCAR-8 ovarian": {"tested_on": "OVCAR-8 ovarian"}, "PC-3 prostate": {"tested_on": "PC-3 prostate"}, "RPMI-8226 leukemia": {"tested_on": "RPMI-8226 leukemia"}, "RXF 393 renal": {"tested_on": "RXF 393 renal"}, "SF-268 CNS": {"tested_on": "SF-268 CNS"}, "SF-295 CNS": {"tested_on": "SF-295 CNS"}, "SF-539 CNS": {"tested_on": "SF-539 CNS"}, "SK-MEL-2 melanoma": {"tested_on": "SK-MEL-2 melanoma"}, "SK-MEL-28 melanoma": {"tested_on": "SK-MEL-28 melanoma"}, "SK-MEL-5 melanoma": {"tested_on": "SK-MEL-5 melanoma"}, "SK-OV-3 ovarian": {"tested_on": "SK-OV-3 ovarian"}, "SN12C renal": {"tested_on": "SN12C renal"}, "SNB-19 CNS": {"tested_on": "SNB-19 CNS"}, "SNB-75 CNS": {"tested_on": "SNB-75 CNS"}, "SR leukemia": {"tested_on": "SR leukemia"}, "SW-620 colon": {"tested_on": "SW-620 colon"}, "TK-10 renal": {"tested_on": "TK-10 renal"}, "U251 CNS": {"tested_on": "U251 CNS"}, "UACC-257 melanoma": {"tested_on": "UACC-257 melanoma"}, "UACC-62 melanoma": {"tested_on": "UACC-62 melanoma"}, "UO-31 renal": {"tested_on": "UO-31 renal"}}, "note": "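Five concentrations, 48 hours, 96-well plates. The concentration for full growth arrest is given as TGI.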"}
{"molecule": "O=c1c2cc(I)ccc2nc(Sc2ccc([N+](=O)[O-])cc2[N+](=O)[O-])n1Cc1ccccc1", "values": [{"measurement": "TGI", "setting": "786-0 renal", "result": 2.25, "unit": "µM"}, {"measurement": "TGI", "setting": "A498 renal", "result": 21.3, "unit": "µM"}, {"measurement": "TGI", "setting": "A549 NSCLC", "result": "> 85", "unit": "µM"}, {"measurement": "TGI", "setting": "ACHN renal", "result": 26.1, "unit": "µM"}, {"measurement": "TGI", "setting": "BT-549 breast", "result": 9.46, "unit": "µM"}, {"measurement": "TGI", "setting": "CAKI-1 renal", "result": 24.7, "unit": "µM"}, {"measurement": "TGI", "setting": "COLO 205 colon", "result": 17.2, "unit": "µM"}, {"measurement": "TGI", "setting": "DU-145 prostate", "result": 12.7, "unit": "µM"}, {"measurement": "TGI", "setting": "EKVX NSCLC", "result": 17.4, "unit": "µM"}, {"measurement": "TGI", "setting": "HCC-2998 colon", "result": 11.1, "unit": "µM"}, {"measurement": "TGI", "setting": "HCT-116 colon", "result": 2.71, "unit": "µM"}, {"measurement": "TGI", "setting": "HCT-15 colon", "result": 3.82, "unit": "µM"}, {"measurement": "TGI", "setting": "HL-60(TB) leukemia", "result": 5.5, "unit": "µM"}, {"measurement": "TGI", "setting": "HOP-62 NSCLC", "result": 12.3, "unit": "µM"}, {"measurement": "TGI", "setting": "HOP-92 NSCLC", "result": 8.56, "unit": "µM"}, {"measurement": "TGI", "setting": "HS 578T breast", "result": "> 36.1", "unit": "µM"}, {"measurement": "TGI", "setting": "HT29 colon", "result": 13.6, "unit": "µM"}, {"measurement": "TGI", "setting": "IGROV1 ovarian", "result": 6.42, "unit": "µM"}, {"measurement": "TGI", "setting": "K-562 leukemia", "result": "> 100", "unit": "µM"}, {"measurement": "TGI", "setting": "KM12 colon", "result": "> 31.2", "unit": "µM"}, {"measurement": "TGI", "setting": "LOX IMVI melanoma", "result": 2.89, "unit": "µM"}, {"measurement": "TGI", "setting": "M14 melanoma", "result": 5.31, "unit": "µM"}, {"measurement": "TGI", "setting": "MALME-3M melanoma", "result": 17.1, "unit": "µM"}, {"measurement": "TGI", "setting": "MCF7 breast", "result": 5.59, "unit": "µM"}, {"measurement": "TGI", "setting": "MDA-MB-231 breast", "result": 16.9, "unit": "µM"}, {"measurement": "TGI", "setting": "MDA-MB-435", "result": 5.35, "unit": "µM"}, {"measurement": "TGI", "setting": "MDA-N", "result": 3.89, "unit": "µM"}, {"measurement": "TGI", "setting": "MOLT-4 leukemia", "result": "> 100", "unit": "µM"}, {"measurement": "TGI", "setting": "NCI-H226 lung", "result": 10.3, "unit": "µM"}, {"measurement": "TGI", "setting": "NCI-H23 lung", "result": 14.2, "unit": "µM"}, {"measurement": "TGI", "setting": "NCI-H460 lung", "result": 29, "unit": "µM"}, {"measurement": "TGI", "setting": "NCI-H522 lung", "result": 2.57, "unit": "µM"}, {"measurement": "TGI", "setting": "NCI/ADR-RES ovarian", "result": 5.44, "unit": "µM"}, {"measurement": "TGI", "setting": "OVCAR-3 ovarian", "result": 4.87, "unit": "µM"}, {"measurement": "TGI", "setting": "OVCAR-4 ovarian", "result": 15.6, "unit": "µM"}, {"measurement": "TGI", "setting": "OVCAR-5 ovarian", "result": 22.7, "unit": "µM"}, {"measurement": "TGI", "setting": "OVCAR-8 ovarian", "result": 4.58, "unit": "µM"}, {"measurement": "TGI", "setting": "PC-3 prostate", "result": 13.8, "unit": "µM"}, {"measurement": "TGI", "setting": "RPMI-8226 leukemia", "result": "> 20.1", "unit": "µM"}, {"measurement": "TGI", "setting": "RXF 393 renal", "result": 12.4, "unit": "µM"}, {"measurement": "TGI", "setting": "SF-268 CNS", "result": 3.77, "unit": "µM"}, {"measurement": "TGI", "setting": "SF-295 CNS", "result": 35.3, "unit": "µM"}, {"measurement": "TGI", "setting": "SF-539 CNS", "result": 4.09, "unit": "µM"}, {"measurement": "TGI", "setting": "SK-MEL-2 melanoma", "result": 3.73, "unit": "µM"}, {"measurement": "TGI", "setting": "SK-MEL-28 melanoma", "result": 35.2, "unit": "µM"}, {"measurement": "TGI", "setting": "SK-MEL-5 melanoma", "result": 17.8, "unit": "µM"}, {"measurement": "TGI", "setting": "SK-OV-3 ovarian", "result": "> 56.8", "unit": "µM"}, {"measurement": "TGI", "setting": "SN12C renal", "result": 2.95, "unit": "µM"}, {"measurement": "TGI", "setting": "SNB-19 CNS", "result": 20.4, "unit": "µM"}, {"measurement": "TGI", "setting": "SNB-75 CNS", "result": 16.7, "unit": "µM"}, {"measurement": "TGI", "setting": "SR leukemia", "result": "> 100", "unit": "µM"}, {"measurement": "TGI", "setting": "SW-620 colon", "result": "> 100", "unit": "µM"}, {"measurement": "TGI", "setting": "TK-10 renal", "result": 20.7, "unit": "µM"}, {"measurement": "TGI", "setting": "U251 CNS", "result": 13.2, "unit": "µM"}, {"measurement": "TGI", "setting": "UACC-257 melanoma", "result": 15.4, "unit": "µM"}, {"measurement": "TGI", "setting": "UACC-62 melanoma", "result": 7.24, "unit": "µM"}, {"measurement": "TGI", "setting": "UO-31 renal", "result": 4.13, "unit": "µM"}]}
